Reference: ChEMBL document CHEMBL1201862, “PubChem BioAssay data set” (2004)
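How tested: cells in 96-well plates exposed to compound for 48 hours at five concentrations. GI50 marks 50% less growth.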 Active and inactive are the calls of the source. Cut-off read from the data, not from the text of the source: active = GI50 up to about 1.1 µM and inactive = higher.

What was measured:
Test in all cases: NCI anticancer screen, dose series, 48 h
[1] = test system: NCI/ADR-RES
[2] = test system: SW-620
[3] = test system: IGROV-1
[4] = test system: NCI-H460
[5] = test system: MDA-MB-435
[6] = test system: SK-MEL-28
[7] = test system: COLO 205
[8] = test system: MDA-MB-231
[9] = test system: MOLT-4
[10] = test system: TK-10
[11] = test system: RPMI-8226
[12] = test system: OVCAR-3
[13] = test system: OVCAR-8
[14] = test system: HCT-116
[15] = test system: BT-549
[16] = test system: SNB-19
[17] = test system: OVCAR-4
[18] = test system: HL-60
[19] = test system: UACC-257
[20] = test system: NCI-H23

Compound	GI50 [1]	GI50 [2]	GI50 [3]	GI50 [4]	GI50 [5]	GI50 [6]	GI50 [7]	GI50 [8]	GI50 [9]	GI50 [10]	GI50 [11]	GI50 [12]	GI50 [13]	GI50 [14]	GI50 [15]	GI50 [16]	GI50 [17]	GI50 [18]	GI50 [19]	GI50 [20]
C=CC[C@H]1[C@@H](O[Si](C)(C)C(C)(C)C)[C@H](n2ccc(=O)[nH]c2=O)O[C@@H]1CO[Si](C)(C)C(C)(C)C	2.15 µM (inactive)	1.82 µM (inactive)	2.32 µM (inactive)	1.9 µM (inactive)	2 µM (inactive)	1.55 µM (inactive)	1.79 µM (inactive)	1.96 µM (inactive)	1.99 µM (inactive)	2.97 µM (inactive)	2.11 µM (inactive)	1.52 µM (inactive)	1.87 µM (inactive)	1.47 µM (inactive)	3.05 µM (inactive)	2.39 µM (inactive)	1.82 µM (inactive)	0.971 µM (active)	2.45 µM (inactive)	2.14 µM (inactive)
CCOC(=O)c1cc(Br)c(-c2onc(C)c2Br)n1C	37.2 µM (inactive)	49.7 µM (inactive)	59.8 µM (inactive)	40 µM (inactive)	34.8 µM (inactive)	> 100 µM (inactive)	28.4 µM (inactive)	24.2 µM (inactive)	15 µM (inactive)	66.8 µM (inactive)	55 µM (inactive)	31.6 µM (inactive)	63.4 µM (inactive)	18.9 µM (inactive)	41.4 µM (inactive)	46.2 µM (inactive)	38.5 µM (inactive)	11.8 µM (inactive)	44.7 µM (inactive)	47.8 µM (inactive)
COc1cc(C(N)=O)cc(NC(=O)/C=C/c2ccccc2)c1OC	> 100 µM (inactive)	> 100 µM (inactive)	> 100 µM (inactive)	> 100 µM (inactive)	> 100 µM (inactive)	> 100 µM (inactive)	> 100 µM (inactive)	> 100 µM (inactive)	> 100 µM (inactive)	> 100 µM (inactive)	> 100 µM (inactive)	97.5 µM (inactive)	61.8 µM (inactive)	> 100 µM (inactive)	> 100 µM (inactive)	27.7 µM (inactive)	> 100 µM (inactive)	> 100 µM (inactive)	> 100 µM (inactive)	> 100 µM (inactive)
CC(=O)OCC(=O)O[C@@H]1[C@H]2[C@@H](OC(=O)c3ccccc3)[C@@H](C)C[C@]2(O)[C@H](OC(C)=O)[C@@]2(C)C[C@]1(OC(C)=O)C[C@H]1C(=O)C(C)(C)[C@@H](OC(C)=O)[C@@H]12	> 25 µM (inactive)	21.2 µM (inactive)	> 25 µM (inactive)	0.991 µM (active)	10.8 µM (inactive)	> 25 µM (inactive)	4.75 µM (inactive)	> 25 µM (inactive)	> 5.14 µM (inactive)	> 25 µM (inactive)	17.9 µM (inactive)	> 25 µM (inactive)	> 25 µM (inactive)	> 25 µM (inactive)	> 25 µM (inactive)	> 25 µM (inactive)	> 20.9 µM (inactive)	2.77 µM (inactive)	> 25 µM (inactive)	> 25 µM (inactive)
Cc1c(C2CCSc3ccccc3N2)sc2ccccc12 (stereo not given)	46 µM (inactive)	> 100 µM (inactive)	> 100 µM (inactive)	90.2 µM (inactive)	35.2 µM (inactive)	> 100 µM (inactive)	> 100 µM (inactive)	> 100 µM (inactive)	77.3 µM (inactive)	> 100 µM (inactive)	> 100 µM (inactive)	> 100 µM (inactive)	> 100 µM (inactive)	62.1 µM (inactive)	> 100 µM (inactive)	> 100 µM (inactive)	62.7 µM (inactive)	55.5 µM (inactive)	99.8 µM (inactive)	> 100 µM (inactive)
